pIC50: −log10 of the molar value. Counter-ions that a name gives are not always drawn.
What was measured:
[1] = system: KG-1 cell line (FGFR 1-fusion); test: Cancer cell line cell viability assay (Cell Titer-Glo), 72 hr; type: cell-based; conditions: Homo sapiens, KG-1, KG-1 cell line (FGFR1-fusion)
Procedure, shortened: (§1)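 Intracellular ATP was measured by Cell Titer-Glo 2.0 luminescence after cells were incubated with compound dilutions (top 3 μM, 4-fold, 9 doses). Values were expressed relative to DMSO-treated cells and IC50 was calculated from a variable-slope dose-response curve.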

[2] = system: KATO-III cell line (FGFR2 amplification); test: as above; type: cell-based; conditions: Homo sapiens, KATO III
Procedure, shortened: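 Luminescent ATP read-out (Cell Titer-Glo 2.0) after compound exposure, normalised to DMSO-only wells. Dosing: 9 concentrations, 4-fold steps, top 3 μM, triplicates. IC50 derived by log(inhibitor) vs. response 4-parameter fit.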

[3] = system: RT112/84 cell line (FGFR3-fusion); test: as above; type: cell-based; conditions: Homo sapiens, RT112/84, RT112/84 cell line (FGFR3-fusion)
Procedure, shortened: as §1

[4] = molecular target: T1, FGFR3 (Homo sapiens, UniProt P22607); test: Kinase binding assay (kinase-tagged T7 phage, affinity beads, qPCR), Kd; conditions: read-out: FGFR3 (Kd nM)
T1 construct: made in house; host or cells: E. coli (BL21-derived), T7 phage
Procedure, shortened: (§2)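 First, phage lysates carrying tagged kinase are made in E. coli at 32° C. Next, they are combined with blocked biotin-ligand streptavidin beads and compound at 0.9% final DMSO. Finally, eluted kinase is measured by qPCR and Kd is fitted with the Hill equation.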

[5] = molecular target: T2, FGFR1 (Homo sapiens, UniProt P11362); test: as above; conditions: read-out: FGFR1 (Kd nM)
T2 construct: made in house; host or cells: E. coli (BL21-derived), T7 phage
Procedure, shortened: as §2

[6] = system: MDA-MB-453 cell line (FGFR4-Y367C); test: Cancer cell line cell viability assay (Cell Titer-Glo), 120 hr; type: cell-based; conditions: Homo sapiens
Procedure, shortened: as §1

T1 sequence (P22607 23-806): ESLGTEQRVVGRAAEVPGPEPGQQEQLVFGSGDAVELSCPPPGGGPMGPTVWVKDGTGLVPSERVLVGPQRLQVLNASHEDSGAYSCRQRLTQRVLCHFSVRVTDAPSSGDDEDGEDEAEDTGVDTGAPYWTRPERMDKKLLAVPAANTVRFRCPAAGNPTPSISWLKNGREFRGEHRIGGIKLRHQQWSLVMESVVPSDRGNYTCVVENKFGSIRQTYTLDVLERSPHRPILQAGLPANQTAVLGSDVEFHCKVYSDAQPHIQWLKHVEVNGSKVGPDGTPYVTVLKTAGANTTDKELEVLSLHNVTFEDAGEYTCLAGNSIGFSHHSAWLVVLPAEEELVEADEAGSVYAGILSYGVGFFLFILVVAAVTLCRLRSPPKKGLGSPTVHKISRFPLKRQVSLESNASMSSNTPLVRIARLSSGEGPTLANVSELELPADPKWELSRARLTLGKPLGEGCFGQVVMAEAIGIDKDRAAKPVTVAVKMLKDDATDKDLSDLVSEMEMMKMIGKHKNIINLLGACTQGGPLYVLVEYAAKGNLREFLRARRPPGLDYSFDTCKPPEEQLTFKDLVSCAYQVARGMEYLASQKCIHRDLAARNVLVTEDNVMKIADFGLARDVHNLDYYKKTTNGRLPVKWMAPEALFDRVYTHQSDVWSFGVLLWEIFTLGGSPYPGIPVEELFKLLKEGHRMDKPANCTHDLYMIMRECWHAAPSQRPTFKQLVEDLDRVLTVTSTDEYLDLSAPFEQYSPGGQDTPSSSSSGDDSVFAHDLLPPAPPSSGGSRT
T2 sequence (P11362 22-822): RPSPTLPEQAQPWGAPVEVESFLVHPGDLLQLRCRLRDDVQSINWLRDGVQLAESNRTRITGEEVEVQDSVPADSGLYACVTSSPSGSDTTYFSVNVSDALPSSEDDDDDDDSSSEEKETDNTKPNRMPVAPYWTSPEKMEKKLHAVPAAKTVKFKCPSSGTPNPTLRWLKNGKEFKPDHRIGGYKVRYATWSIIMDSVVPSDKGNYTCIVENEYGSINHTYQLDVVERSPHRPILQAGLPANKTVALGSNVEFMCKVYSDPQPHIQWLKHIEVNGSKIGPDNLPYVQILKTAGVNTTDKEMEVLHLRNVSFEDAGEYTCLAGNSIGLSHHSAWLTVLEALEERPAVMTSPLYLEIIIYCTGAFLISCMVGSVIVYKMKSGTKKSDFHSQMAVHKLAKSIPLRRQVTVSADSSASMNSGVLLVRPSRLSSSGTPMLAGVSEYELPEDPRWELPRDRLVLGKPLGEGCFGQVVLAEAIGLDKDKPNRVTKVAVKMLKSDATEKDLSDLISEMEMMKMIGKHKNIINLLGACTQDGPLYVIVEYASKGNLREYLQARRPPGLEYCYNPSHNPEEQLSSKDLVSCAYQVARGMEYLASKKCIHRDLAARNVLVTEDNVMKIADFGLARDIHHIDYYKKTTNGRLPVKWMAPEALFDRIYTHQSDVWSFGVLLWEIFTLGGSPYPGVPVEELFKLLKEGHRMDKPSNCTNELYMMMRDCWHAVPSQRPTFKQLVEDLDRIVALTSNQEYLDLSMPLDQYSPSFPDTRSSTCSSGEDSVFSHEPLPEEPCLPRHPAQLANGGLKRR

Row | SMILES | pIC50 [1] | pIC50 [2] | pIC50 [3] | Kd [4] [nM] | Kd [5] [nM] | pIC50 [6]
1 | C[C@@H](Oc1ccc2[nH]nc(-c3cnc(N4CC(N)(CCO)C4)c(F)c3)c2c1)c1c(Cl)cncc1Cl [Example 259, (R)-2-(3-amino-1-(5-(5-(1-(3,5-dichloropyridin-4-yl)ethoxy)-1H-indazol-3-yl)-3-fluoropyridin-2-yl)azetidin-3-yl)ethanol] | 6.70 to 7.30 | 7.30 to 10.00 | 7.30 to 10.00 | 1 to 50 | 1 to 50 | 7.30 to 10.00
2 | Cc1ncc(Cl)c([C@@H](C)Oc2ccc3[nH]nc(-c4cnc(N5CC(CC#N)(NCC6CC6)C5)c(F)c4)c3c2)c1Cl [Example 250, 2-[3-(cyclopropylmethyl-amino)-1-[5-[5-[(1R)-1-(3,5-di-chloro-2-methyl-4-pyridyl)ethoxy]-1H-indazol-3-yl]-3-fluoro-2-pyridyl]azetidin-3-yl]acetonitrile] | 6.00 to 6.70 | 6.70 to 7.30 | 7.30 to 10.00 | 1 to 50 | 50 to 300 | 6.00 to 6.70
3 | C[C@@H](Oc1ccc2[nH]nc(-c3ccc(N4CC(N)(CC5CC5)C4)nn3)c2c1)c1c(Cl)cncc1Cl [Example 272, (R)-3-(cyclopropylmethyl)-1-(6-(5-(1-(3,5-dichloropyridin-4-yl)ethoxy)-1H-indazol-3-yl)pyridazin-3-yl)azetidin-3-amine] | 6.70 to 7.30 | 6.70 to 7.30 | 7.30 to 10.00 | 1 to 50 | 1 to 50 | 6.00 to 6.70
4 | C[C@@H](Oc1ccc2[nH]nc(-c3ccc(N4CC(N)(CCO)C4)nn3)c2c1)c1c(Cl)cncc1Cl [Example 267, (R)-2-(3-amino-1-(6-(5-(1-(3,5-dichloropyridin-4-yl)ethoxy)-1H-indazol-3-yl)pyridazin-3-yl)azetidin-3-yl)ethanol] | < 6.00 | 6.70 to 7.30 | 7.30 to 10.00 | 1 to 50 | 1 to 50 | 6.00 to 6.70
5 | C[C@@H](Oc1ccc2[nH]nc(-c3cnc(N4CC(N)(CCF)C4)c(F)c3)c2c1)c1c(Cl)cncc1Cl [Example 284, (R)-1-(5-(5-(1-(3,5-dichloropyridin-4-yl)ethoxy)-1H-indazol-3-yl)-3-fluoropyridin-2-yl)-3-(2-fluoroethyl)azetidin-3-amine] | 6.70 to 7.30 | 7.30 to 10.00 | 7.30 to 10.00 | 1 to 50 | 1 to 50 | 7.30 to 10.00
6 | C[C@@H](Oc1ccc2[nH]nc(-c3cnc(N4CC(N)(Cc5ccn(C)n5)C4)c(F)c3)c2c1)c1c(Cl)cncc1Cl [Example 282, (R)-1-(5-(5-(1-(3,5-dichloropyridin-4-yl)ethoxy)-1H-indazol-3-yl)-3-fluoropyridin-2-yl)-3-((1-methyl-1H-pyrazol-3-yl)methyl)azetidin-3-amine] | 6.70 to 7.30 | 6.70 to 7.30 | 7.30 to 10.00 | 1 to 50 | 1 to 50 | 6.70 to 7.30
7 | C[C@@H](Oc1ccc2[nH]nc(-c3cnc(N4CC(N)(Cc5cnn(C)c5)C4)c(F)c3)c2c1)c1c(Cl)cncc1Cl [Example 290, (R)-1-(5-(5-(1-(3,5-dichloropyridin-4-yl)ethoxy)-1H-indazol-3-yl)-3-fluoropyridin-2-yl)-3-((1-methyl-1H-pyrazol-4-yl)methyl)azetidin-3-amine] | 6.70 to 7.30 | 6.70 to 7.30 | 7.30 to 10.00 | 1 to 50 | 1 to 50 | 6.70 to 7.30
8 | CC(C)CNC1(C)CN(c2ccc(-c3n[nH]c4ccc(O[C@H](C)c5c(Cl)cncc5Cl)cc34)nn2)C1 [Example 242, (R)-1-(6-(5-(1-(3,5-dichloropyridin-4-yl)ethoxy)-1H-indazol-3-yl)pyridazin-3-yl)-N-isobutyl-3-methylazetidin-3-amine] | 6.70 to 7.30 | 6.70 to 7.30 | 7.30 to 10.00 | 1 to 50 | 1 to 50 | 6.00 to 6.70
9 | CC(C)=CCC1(N)CN(c2ncc(-c3n[nH]c4ccc(O[C@H](C)c5c(Cl)cncc5Cl)cc34)cc2F)C1 [Example 271, (R)-1-(5-(5-(1-(3,5-dichloropyridin-4-yl)ethoxy)-1H-indazol-3-yl)-3-fluoropyridin-2-yl)-3-(3-methylbut-2-en-1-yl)azetidin-3-amine] | 6.00 to 6.70 | 6.70 to 7.30 | 7.30 to 10.00 | 1 to 50 | 1 to 50 | 7.30 to 10.00
10 | C[C@@H](Oc1ccc2[nH]nc(-c3cnc(N4CC(CC#N)(N5CCCC5)C4)c(F)c3)c2c1)c1c(Cl)cncc1Cl [Example 251, (R)-2-(1-(5-(5-(1-(3,5-dichloropyridin-4-yl)ethoxy)-1H-indazol-3-yl)-3-fluoropyridin-2-yl)-3-(pyrrolidin-1-yl)azetidin-3-yl)acetonitrile] | 6.70 to 7.30 | 7.30 to 10.00 | 7.30 to 10.00 | 1 to 50 | 1 to 50 | 6.70 to 7.30
11 | C[C@@H](Oc1ccc2[nH]nc(-c3ccc(N4CC(N)(CCC#N)C4)nn3)c2c1)c1c(Cl)cncc1Cl [Example 285, (R)-3-(3-amino-1-(6-(5-(1-(3,5-dichloropyridin-4-yl)ethoxy)-1H-indazol-3-yl)pyridazin-3-yl)azetidin-3-yl)propanenitrile] | 7.30 to 10.00 | 7.30 to 10.00 | 7.30 to 10.00 | 1 to 50 | 1 to 50 | 6.00 to 6.70
12 | C[C@@H](Oc1ccc2[nH]nc(-c3cnc(N4CC(C)(N(C)CC5CC5)C4)c(F)c3)c2c1)c1c(Cl)cncc1Cl [Example 246, (R)-N-(cyclopropyl-methyl)-1-(5-(5-(1-(3,5-dichloropyridin-4-yl)ethoxy)-1H-indazol-3-yl)-3-fluoropyridin-2-yl)-N,3-dimethylazetidin-3-amine] | 6.00 to 6.70 | 6.70 to 7.30 | 7.30 to 10.00 | 1 to 50 | 1 to 50 | 6.00 to 6.70
13 | CCC1(NCC2CC2)CN(c2ncc(-c3n[nH]c4ccc(O[C@H](C)c5c(Cl)cncc5Cl)cc34)cc2F)C1 [Example 247, N-(cyclopropylmethyl)-1-[5-[5-[(1R)-1-(3,5-dichloro-4-pyridyl)ethoxy]-1H-indazol-3-yl]-3-fluoro-2-pyridyl]-3-ethyl-azetidin-3-amine dihydrochloride] | 6.70 to 7.30 | 6.70 to 7.30 | 7.30 to 10.00 | 1 to 50 | 1 to 50 | 6.70 to 7.30
14 | CCC1(N)CN(c2ncc(-c3n[nH]c4ccc(O[C@H](C)c5c(Cl)cncc5Cl)cc34)cc2F)C1 [Example 260, 1-[5-[5-[(1R)-1-(3,5-dichloro-4-pyridyl)ethoxy]-1H-indazol-3-yl]-3-fluoro-2-pyridyl]-3-ethyl-azetidin-3-amine] | 6.70 to 7.30 | 6.70 to 7.30 | 7.30 to 10.00 | 1 to 50 | 1 to 50 | 7.30 to 10.00
15 | C=CCC1(N)CN(c2ccc(-c3n[nH]c4ccc(O[C@H](C)c5c(Cl)cncc5Cl)cc34)nn2)C1 [Example 274, (R)-3-allyl-1-(6-(5-(1-(3,5-dichloropyridin-4-yl)ethoxy)-1H-indazol-3-yl)pyridazin-3-yl)azetidin-3-amine] | 6.70 to 7.30 | 7.30 to 10.00 | 7.30 to 10.00 | 1 to 50 | 1 to 50 | 6.00 to 6.70
16 | C[C@@H](Oc1ccc2[nH]nc(-c3cnc(N4CC(N)(CC(C)(C)O)C4)c(F)c3)c2c1)c1c(Cl)cncc1Cl [Example 266, (R)-1-(3-amino-1-(5-(5-(1-(3,5-dichloropyridin-4-yl)ethoxy)-1H-indazol-3-yl)-3-fluoropyridin-2-yl)azetidin-3-yl)-2-methylpropan-2-ol] | 6.00 to 6.70 | 6.70 to 7.30 | 7.30 to 10.00 | 1 to 50 | 1 to 50 | < 6.00
17 | CC(C)NC1(C)CN(c2ccc(-c3n[nH]c4ccc(O[C@H](C)c5c(Cl)cncc5Cl)cc34)nn2)C1 [Example 244, (R)-1-(6-(5-(1-(3,5-dichloropyridin-4-yl)ethoxy)-1H-indazol-3-yl)pyridazin-3-yl)-N-isopropyl-3-methylazetidin-3-amine] | 6.70 to 7.30 | 6.70 to 7.30 | 7.30 to 10.00 | 1 to 50 | 1 to 50 | 6.00 to 6.70
18 | C=CCC1(N)CN(c2ncc(-c3n[nH]c4ccc(O[C@H](C)c5c(Cl)cncc5Cl)cc34)cc2F)C1 [Example 264, (R)-3-ally1-1-(5-(5-(1-(3,5-dichloropyridin-4-yl)ethoxy)-1H-indazol-3-yl)-3-fluoropyridin-2-yl)azetidin-3-amine] | 6.70 to 7.30 | 6.70 to 7.30 | 7.30 to 10.00 | 1 to 50 | 1 to 50 | 6.70 to 7.30
19 | C[C@@H](Oc1ccc2[nH]nc(-c3cnc(N4CC(N)(CCS(C)(=O)=O)C4)c(F)c3)c2c1)c1c(Cl)cncc1Cl [Example 270, (R)-1-(5-(5-(1-(3,5-dichloropyridin-4-yl)ethoxy)-1H-indazol-3-yl)-3-fluoropyridin-2-yl)-3-(2-(methylsulfonyl)ethyl)azetidin-3-amine] | 6.70 to 7.30 | 7.30 to 10.00 | 7.30 to 10.00 | 1 to 50 | 1 to 50 | 7.30 to 10.00
